The values that follow come from patent US6028102A, “Anticonvulsant drugs and pharmaceutical compositions thereof” (priority 1998, dated 2000).

What is called MRT is the average time that molecules of a dose stay in the body. One may read the Vss as the apparent volume that relates the amount in the body to the concentration in plasma or blood. What is called half-life is the time in which the quantity being followed falls by half. By clearance is commonly meant the volume of plasma or blood freed of the substance per unit of time. A lower clearance goes with a low capacity for elimination. As usually defined, the Vd is a proportionality between amount in the body and measured concentration, not a real space. Higher therefore signals extensive tissue distribution.

For data set [1] the following is noted: mice; Freed, 1985; cited from earlier work.
The conditions of data set [2]: electroshock, metrazole and homocysteine; Freed et al, 1979; cited from earlier work.
The conditions of data set [3]: mice; Kohn et al 1988, 1990, 1991; Conley and Kohn, 1987; cited from earlier work.
The nature of data set [4]: Screening of anticonvulsant activity. Type of data set: in vivo, mice. The settings on record: for anticonvulsant activity in words: overall finding of the study; for anticonvulsant activity: ip administration (300 mg) to mice. Here is the method:
Screening of Anticonvulsant Activity
Compounds I-XI were screened in carworth farm #1 mice (ip--in a volume of 0.01 mL/g of body weight) and sprague-Dawley rats (po--in a volume of 0.004 mL/g of body weight) for their anticonvulsant activity and neurotoxicity by the NIH epilepsy Branch [Porter et al, 1984]. The screening procedure involved the following:
1) the maximal electroshock (MES) test, which measures seizure spread; 2) the subcutaneous pentylenetetrazol test (sc Met test) which measures seizure threshold; and 3) the rotored ataxia test which assesses neurotoxicity.
Applicants therefore decided to derivatize glycinamide and the above dipeptides by synthesizing their N-acetyl and N'-benzyl derivatives (compounds IV-VIII). […] Therefore, this compound was further analyzed quantitatively and its ED50 data and protective indices in comparison to phthaloyl glycinamide and valproyl glycinamide--TV 1901 [17] are presented in Table 2. As a consequence of their anticonvulsant activity, the pharmacokinetics of compounds VII and IX were investigated following iv administration (400 mg) to six dogs, and the mean plasma levels of compounds VII and IX are presented in FIGS. 1 and 2, respectively.

The conditions of data set [5]: in vivo, cited from earlier work.
The conditions of data set [6]: ip, mice, cited from earlier work; for sc Met, ED50: data from Salach et al (1994), Hadad and Bialer (1995).
For data set [7] the following is noted: ip, mice; data from Salach et al (1994), Hadad and Bialer (1995); cited from earlier work.
The conditions of data set [8]: ip, mice; data from Salach et al (1994), Hadad and Bialer (1995); cited from earlier work. The source holds these as a separate data set.
For data set [9] the following is noted: dogs, iv, mean, Table 3, cited from earlier work; for CL / MRT / Vss / Vβ / t1/2: data from Salach et al 1994, Hadad and Bialer 1995.
The conditions of data set [10]: mice and rats / rodents; cited from earlier work.
Data set [11] is described as follows: Pharmacokinetic analysis following iv administration to dogs. The format is in vivo. The settings on record: dog, in vivo. Here is the method:
The experiments were carried out on six male dogs (mongrels), ranging in weight between 18 and 22 kg. In a randomized cross over design, each dog was injected intravenously (in 1.5 mL of DMSO) with a dose of 400 mg of N-acetyl,N'-benzylglycinamide (VII), 404 mg (on dose equivalent to 400 mg of compound VII) of Z-glycinamide (IX) and 406 mg of Z-glycine (VIII). Urine was collected systematically for 12 hours after dosing, by means of an indwelling catheter.
Venous blood samples (6 mL) were collected via an indwelling catheter (from the cephalic vein) at specified intervals following injection (0, 5, 10, 20, 30, 45 minutes and 1, 1.5, 2, 2.5, 3, 4, 5, 6, 7, 8, 10 and 12 hours respectively). The plasma was then immediately separated by centrifugation at 3000 g for 15 minutes and stored at -20° C. Before each assay, the plasma was allowed to reach room temperature, vortexed, centrifuged and the residual clot removed.
Urine samples were collected via a urine catheter at specified intervals following injection (0, 1, 2, 3, 4, 5, 6, 7, 8, 9, 10 and 12 hours respectively), the samples volume were measured and the urine samples were stored at -20° C. Plasma and urine levels of compounds VII, VIII and IX were then assayed by a HPLC assay described herein below.
HPLC Assay for Monitoring N-acetyl,N'-benzylglycinamide (VII) and N-benzyloxycarbonylglycinamide (IX) in Dog Plasma and Urine
Plasma samples are allowed to reach room temperature, vortexed and centrifuged. The plasma was then assayed as follows:
To 0.5 mL of plasma, 10 μg of an internal standard (N-benzyl-oxycarbonylglycinamide (IX)) and 4 mL of tert-butylmethylether were added. The mixture was vigorously vortexed for 30 seconds, centrifuged for 10 minutes at 3000 g, the organic phase was separated and evaporated to dryness (using a vortex evaporator). To the residue, 80 μl of methanol were added, the mixture was vortexed and 30 μl were injected into the HPLC (Schimadzu SCL-10A with a UV-visible detector model SPD-10A).
Urine samples are allowed to reach room temperature, vortexed and centrifuged. The urine was then assayed as follows:
To 0.25 mL of urine, 10 μg of internal standard (N-benzyl-oxycarbonylglycinamide (IX)), 100 μl of hydrochloric acid solution (1 N) and 4 mL of tert-butylmethylether were added. The mixture was vigorously vortexed for 30 seconds and centrifuged for 10 minutes at 3000 g, the organic phase was separated and transferred to another test tube containing 0.5 mL of sodium hydroxide solution (1N), the mixture was vigorously vortexed for 30 seconds, centrifuged for 10 minutes at 3000 g, the organic phase was separated and evaporated to dryness (using a vortex evaporator). To the residue, 80 μl of methanol were added, the mixture was vortexed and 30 μl were injected into the HPLC.
HPLC conditions: HPLC column; Hypersil ODS (C-18) 5μ, 4.6×150 mm; Wavelength: 258 nm; Mobile phase: 60% water, 40% methanol and 0.01% trifluoroacetic acid.
The same assay was used for monitoring N-benzyloxycarbonyl-glycinamide (IX) in dog plasma and dog urine using N-acetyl,N'-benzylglycinamide as an internal standard.
HPLC Assay for Monitoring Z-glycine (VIII) in Dog Plasma and Urine
To 0.5 mL of plasma, 10 μg of internal standard (Z-GABA), 100 μl of hydrochloric acid solution (1N) and 5 mL of tert-butylmethylether were added. The mixture was vigorously vortexed for 30 seconds, centrifuged for 10 minutes at 3000 g, the organic phase was separated and evaporated to dryness (using a vortex evaporator). To the residue, 100 μl of mobile phase were added, the mixture was vortexed and 30 μl were injected to the HPLC.
Urine samples was allowed to reach room temperature, vortexed and centrifuged. The urine was then assayed as follows:
To 0.1 mL of urine, 30 μg of internal standard (Z-GABA) and 5 mL of tert-butylmethylether were added. The mixture was vigorously vortexed for 30 seconds, centrifuged for 10 minutes at 3000 g, the organic phase was separated off. […]

The conditions of data set [12]: rats; Lambert et al. [1994]; cited from earlier work.

SMILES strings stand for the structures. Like-named read-outs stand apart in the source and are kept apart here. Peptide text beside a SMILES is read from it. * marks the point of attachment. Cbz = O=C(OCc1ccccc1)*

`C[N+](C)(C)CC(=O)O` [betaine, N,N,N-trimethyl glycine]: the “antagonism of strychnine-induced seizures” value (shortened to “antagonism”) in data set [1] is given as “antagonized”. Also, the “block of induction of convulsions” value in [2] is “block the induction of convulsions”.
With `CC(=O)N[C@@H](C(=O)NCc1ccccc1)c1ccc[nH]1` (racemic) [(R,S)-2-acetamido-N-benzyl-2-pyrolacetamide], the “anticonvulsant activity in MES test” value in data set [3] is “more potent than the analogous alanine and phenylglycine derivatives”.
For the molecule `O=C(O)CNC(=O)CNC(=O)OCc1ccccc1` [X, N-benzyloxycarbonyl glycylglycine] (Cbz-Gly-Gly-OH), the “anticonvulsant activity in words” value in [4] is “inactive as anticonvulsant”.
On the same count and under the same terms, the same measure for `CC(=O)NCC(=O)NCC(N)=O` [compound VI, N-Acetylglycylglycinamide]: “inactive as anticonvulsant”.
As to `CC(=O)NC(C)C(=O)NCc1ccccc1` (racemic) [N-acetyl,N'-benzyl DL-alaninamide], the “anticonvulsant activity in MES test” value in data set [3] is “marked anticonvulsant activity”.
On to `NCC(=O)O` [glycine], for which, in data set [5], the “effect upon oral or systemic administration” value was “neither GABA nor glycine are effective upon oral or systemic administration” and the blood-brain barrier passage entry is “does not readily cross the blood-brain barrier”.
For the molecule `NC(=O)CNC(=O)CNC(=O)OCc1ccccc1` [XI, N-Benzyloxycarbonyl Glycylglycinamide] (Cbz-Gly-Gly-NH2), the “anticonvulsant activity in words” value in [4] was “inactive as anticonvulsant”.
With `NCCCC(=O)NCC(N)=O` [III, Gaboylglycinamide], in [4], the anticonvulsant activity entry is given as “did not show anticonvulsant activity”.
As for `CNCC(=O)O` [sarcosine, N-methylglycine], in data set [1], the “antagonism” value is given as “antagonized”.
On to `NC(=O)CN1C(=O)c2ccccc2C1=O` [phthaloyl glycinamide, phthaloylglycinamide], for which the “sc Met, ED50” value in data set [6] is reported as more than 400 mg/kg. In data set [7], the “MES, ED50” value is on record as 94 mg/kg and the “PI, MES (Protective index, ratio of TD50 to ED50)” value is more than 64. The “Neurotoxicity, TD50” value in data set [8] is more than 600 mg/kg. In addition, in [9], the CL is 9 L/h, the MRT is 4.6 ± 0.9 h, the Vss is 46 ± 13 L and the Vβ is 48 ± 13 L. Further, in data set [9], the t1/2 is 3.4 ± 0.7 h. For the same molecule, the “fe (fraction excreted unchanged in urine)” value in data set [9] (data from Salach et al 1994, 720 min) is recorded as 7.0 ± 0.7%.
`CC(=O)NC(C(=O)NCc1ccccc1)c1ccccc1` (racemic) [N-acetyl,N'-benzyl DL-phenyl glycinamide]: in data set [3], the “anticonvulsant activity in MES test” value is listed as “marked anticonvulsant activity”.
Consider `CCC(C)C(CC)C(=O)NCC(N)=O` (centres unmarked) [valnoctyl glycinamide], for which, in data set [10], the “anticonvulsant activity in words” value was “good anticonvulsant activity in rodents”.
Regarding `CC1(C)C(C(=O)NCC(N)=O)C1(C)C` [tetramethylcyclopropylcarbonyl glycinamide], the “anticonvulsant activity in words” value in data set [10] was “good anticonvulsant activity in rodents”.
Turning to `CC(C)C(C(=O)NCC(N)=O)C(C)C` [diisopropyl acety glycinamide], the “anticonvulsant activity in words” value in data set [10] was “good anticonvulsant activity in rodents”.
Consider `NCC(=O)NCC(=O)O` [I, Glycylglycine] (H-Gly-Gly-OH), for which the anticonvulsant activity result in data set [4] is reported as “did not show anticonvulsant activity”.
For `CN(C)CC(=O)O` [dimethylglycine], the “antagonism” value in [1] is recorded as “antagonized”.
With `CCCC(CCC)C(=O)NCC(N)=O` [valproyl glycinamide, N-valproyl glycinamide], in [6] (data from Hadad and Bialer (1995)), the “PI, sc Met (Protective index, ratio of TD50 to ED50)” value is on record as 2.9. In [6], the “sc Met, ED50” value is on record as 127 mg/kg. In data set [7], the “MES, ED50” value was 152 mg/kg and the “PI, MES (Protective index, ratio of TD50 to ED50)” value was 2.4. Also, the “anticonvulsant activity in words” value in [10] was “good anticonvulsant activity in both mice and rats”. In [9], the CL was 3 ± 0.8 L/h, the MRT was 4.6 ± 0.7 h, the Vss is 12 ± 3 L and the Vβ is on record as 11 ± 3 L. Further, in data set [9], the t1/2 was 2.7 ± 0.5 h.
Turning to `NCC(=O)NCC(N)=O` [II, Glycylglycinamide], the anticonvulsant activity result in data set [4] is listed as “did not show anticonvulsant activity”.
For the molecule `O=C(O)CNC(=O)OCc1ccccc1` [compound VIII, N-benzyloxycarbonylglycine], the “fm (fraction metabolized of Z-glycinamide to Z-glycine)” value in data set [11] came out at 80.1 ± 13.6%. Moreover, the half-life in [11] was 36 ± 8.4 min. In data set [11], the “pharmacokinetics and elimination in words” value is on record as “its t1/2 was the shortest”. Further, the “Mu/D (fraction of Z-glycine excreted in the urine as a metabolite of Z-glycinamide)” value in data set [11] (720 min) was found to be 20 ± 19.8%. Moreover, in data set [11] (CL), the clearance was 90 mL/min. Besides, the MRT in [11] (MRT) stood at 48 ± 6 min. For the same molecule, the Vd in [11] (VSS / volume of distribution) worked out at 0.2 L/kg; in data set [11] (Vss), 4.9 ± 0.6 L; in data set [11] (Vβ) it was 4.5 ± 0.8 L. Further, the “anticonvulsant activity in words” value in data set [4] is “lack of activity”; in [4] (listed as Z-glycine), “inactive in this study”. Besides, the “anticonvulsant activity relative to glycine” value in data set [12] was “far more active than glycine”.
For the molecule `NCCCC(=O)O` [GABA], in data set [5], the “effect upon oral or systemic administration” value is given as “neither GABA nor glycine are effective upon oral or systemic administration” and the blood-brain barrier passage result was “inability to cross the blood brain barrier”.
Regarding `CCC=C(CCC)C(=O)NCC(N)=O` [N-2-enevalproyl glycinamide], the “anticonvulsant activity in words” value in [10] was “good anticonvulsant activity in rodents”.
